What all share (type): biochemical
One assay addresses T1, Sirt1 (Homo sapiens, UniProt Q96EB6).
T1 construct: made in house
T1 sequence (Q96EB6 1-747): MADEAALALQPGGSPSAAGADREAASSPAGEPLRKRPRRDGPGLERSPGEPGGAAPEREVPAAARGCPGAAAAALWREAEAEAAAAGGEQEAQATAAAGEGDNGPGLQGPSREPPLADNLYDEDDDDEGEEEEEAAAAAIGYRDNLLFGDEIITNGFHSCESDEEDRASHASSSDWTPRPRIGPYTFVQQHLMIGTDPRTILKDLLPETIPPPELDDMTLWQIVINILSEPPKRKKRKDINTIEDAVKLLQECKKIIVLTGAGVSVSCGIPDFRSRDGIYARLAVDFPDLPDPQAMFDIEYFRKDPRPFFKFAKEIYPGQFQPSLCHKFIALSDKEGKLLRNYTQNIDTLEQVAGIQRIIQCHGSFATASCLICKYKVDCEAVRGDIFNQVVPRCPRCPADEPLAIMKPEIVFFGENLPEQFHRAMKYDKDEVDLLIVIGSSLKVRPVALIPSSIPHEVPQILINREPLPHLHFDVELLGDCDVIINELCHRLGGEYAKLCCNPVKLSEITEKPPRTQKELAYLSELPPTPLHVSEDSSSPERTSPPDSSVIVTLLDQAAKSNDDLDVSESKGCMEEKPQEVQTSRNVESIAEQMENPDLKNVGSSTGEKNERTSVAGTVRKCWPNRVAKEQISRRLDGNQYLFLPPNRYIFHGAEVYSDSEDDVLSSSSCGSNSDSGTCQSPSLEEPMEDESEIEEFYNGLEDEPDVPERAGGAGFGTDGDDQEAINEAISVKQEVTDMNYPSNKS
In words: Fluorimeter delipoylation assay of probe KTlip with Sirt1. To be noted: KTlip incubated with Sirt1 at 37° C. in HEPES buffer (pH 8.0); compared with Sirt2. As for the experimental part:
(§1) The probe KTlip following was first synthesized. The capacity of HDACs to recognize and remove the lipoyl group of KTlip was then examined by a fluorimeter assay. Briefly, KTlip was incubated with various HDACs at 37° C. in HEPES buffer (pH 8.0). The fluorescence of the enzymatic reactions was then measured accordingly. […] Further HPLC and MS analysis confirmed that the molecular weight of the newly generated peak corresponded to the expected tandem delipoylated/exchanged product (FIG. 4A,B). […] After enzymatic reaction with Sirt2, a shift of peak absorption from 380 nm to 480 nm was clearly observed. (FIG. 4C). Through detailed kinetic study, the first-order rate constant of the reaction was determined to be 0.013 min−1. […]
(§2) The probe KTlip was incubated with sirtuin and NAD+ at 37° C. in 20 mM HEPES buffer (pH 8.0) containing 150 mM NaCl, 1 mM MgCl2, and 2.7 mM KCl. […] When the enzymatic reaction was complete, the reaction was applied for absorption and fluorescence measurement. The parameter set for absorbance measurement was as follows: UV-visible light, collection region: 300-550 nm. The parameter set for fluorescence measurements was as follows: λex=480 nm, slit width: 5 nm, collection region: 510-600 nm.

The target in assay [1] is T2, HDAC8 (Homo sapiens, UniProt Q9BY41).
T2 sequence (Q9BY41 1-377): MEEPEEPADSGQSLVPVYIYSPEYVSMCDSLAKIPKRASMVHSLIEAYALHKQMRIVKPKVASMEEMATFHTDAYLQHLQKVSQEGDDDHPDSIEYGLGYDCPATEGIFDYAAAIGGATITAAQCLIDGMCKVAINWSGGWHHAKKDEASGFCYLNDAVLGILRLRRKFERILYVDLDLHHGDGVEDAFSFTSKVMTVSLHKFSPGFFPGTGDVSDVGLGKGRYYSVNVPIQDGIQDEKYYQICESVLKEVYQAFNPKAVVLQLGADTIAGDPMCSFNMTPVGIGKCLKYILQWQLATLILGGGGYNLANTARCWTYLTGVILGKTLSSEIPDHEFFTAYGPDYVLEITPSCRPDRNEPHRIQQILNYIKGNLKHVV
Put plainly: HPLC analysis of the enzymatic reaction of KTlip with HDAC8. Particulars: KTlip 40 μM, HDAC8 80 ng/μl, 20 mM HEPES pH 8.0, 2 hours reaction. How it is done:
FIG. 6 depicts HPLC analysis of the enzymatic reaction of KTlip (40 μM) with HDAC8 (80 ng/μl) in the reaction buffer (20 mM HEPES buffer at pH 8.0, 150 mM NaCl, 1 mM MgCl2 and 2.7 mM KCl).
The probe KTlip following was first synthesized. The capacity of HDACs to recognize and remove the lipoyl group of KTlip was then examined by a fluorimeter assay. Briefly, KTlip was incubated with various HDACs at 37° C. in HEPES buffer (pH 8.0). The fluorescence of the enzymatic reactions was then measured accordingly. […] Further HPLC and MS analysis confirmed that the molecular weight of the newly generated peak corresponded to the expected tandem delipoylated/exchanged product (FIG. 4A,B). […] After enzymatic reaction with Sirt2, a shift of peak absorption from 380 nm to 480 nm was clearly observed. (FIG. 4C). Through detailed kinetic study, the first-order rate constant of the reaction was determined to be 0.013 min−1. The Km value of KTlip obtained from the fluorescent method matched well with that from the traditional HPLC method (FIG. 5), underscoring that probe KTlip can serve as a useful tool for detecting enzymatic delipoylation activity.

Another assay has as its target T3, Sirt5 (Homo sapiens, UniProt Q9NXA8).
T3 construct: made in house
T3 sequence (Q9NXA8 37-310): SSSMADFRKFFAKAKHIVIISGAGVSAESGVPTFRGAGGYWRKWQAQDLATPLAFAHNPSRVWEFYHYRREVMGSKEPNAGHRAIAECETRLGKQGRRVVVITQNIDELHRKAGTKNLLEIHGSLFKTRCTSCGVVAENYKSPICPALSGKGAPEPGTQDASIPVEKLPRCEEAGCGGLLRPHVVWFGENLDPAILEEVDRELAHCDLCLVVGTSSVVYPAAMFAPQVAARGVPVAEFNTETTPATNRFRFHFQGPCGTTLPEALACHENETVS
Put plainly: Fluorimeter delipoylation assay of probe KTlip with Sirt5. To be noted: KTlip incubated with Sirt5 at 37° C. in HEPES buffer (pH 8.0). As for the experimental part: as §1, §2

In a further assay the target is T4, Sirt3 (Homo sapiens, UniProt Q9NTG7).
T4 construct: made in house
T4 sequence (Q9NTG7 1-399): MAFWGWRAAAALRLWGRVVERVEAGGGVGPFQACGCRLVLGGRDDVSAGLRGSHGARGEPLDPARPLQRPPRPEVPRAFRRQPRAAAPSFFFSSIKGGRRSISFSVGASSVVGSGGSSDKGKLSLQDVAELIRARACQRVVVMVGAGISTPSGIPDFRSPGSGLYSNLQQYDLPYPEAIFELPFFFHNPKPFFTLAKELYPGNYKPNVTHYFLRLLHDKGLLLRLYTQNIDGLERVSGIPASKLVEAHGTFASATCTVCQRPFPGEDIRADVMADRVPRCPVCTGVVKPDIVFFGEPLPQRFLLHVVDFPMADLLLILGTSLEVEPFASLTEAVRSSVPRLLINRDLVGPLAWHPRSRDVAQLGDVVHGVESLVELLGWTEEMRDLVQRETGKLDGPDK
Put plainly: Fluorimeter delipoylation assay of probe KTlip with Sirt3. Particulars: KTlip incubated with Sirt3 at 37° C. in HEPES buffer (pH 8.0). As for the experimental part: as §1, §2

The target in assay [2] is T2, HDAC8. Put plainly: Fluorimeter delipoylation assay of probe KTlip with HDAC8. Particulars: KTlip incubated with HDAC8 at 37° C. in HEPES buffer (pH 8.0). How it is done: as §1, §2
The next assay addresses T5, Sirt2 (Homo sapiens, UniProt Q8IXJ6).
T5 construct: made in house
T5 sequence (Q8IXJ6 1-389): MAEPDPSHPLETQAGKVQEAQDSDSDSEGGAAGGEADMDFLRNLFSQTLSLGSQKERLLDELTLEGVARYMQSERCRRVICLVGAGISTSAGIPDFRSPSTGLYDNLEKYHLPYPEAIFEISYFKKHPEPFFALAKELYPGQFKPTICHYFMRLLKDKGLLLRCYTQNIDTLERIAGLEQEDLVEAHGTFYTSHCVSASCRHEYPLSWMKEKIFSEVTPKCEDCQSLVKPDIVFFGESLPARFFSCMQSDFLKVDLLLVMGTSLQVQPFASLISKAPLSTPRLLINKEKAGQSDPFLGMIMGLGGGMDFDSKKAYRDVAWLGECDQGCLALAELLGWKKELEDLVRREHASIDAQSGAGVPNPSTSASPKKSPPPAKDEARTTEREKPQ
Put plainly: Fluorimeter delipoylation assay of probe KTlip with Sirt2. How it is done: as §1, §2

The target in a further assay is T6, Sirt6 (Homo sapiens, UniProt Q8N6T7).
T6 construct: made in house
Put plainly: Fluorimeter delipoylation assay of probe KTlip with Sirt6. Particulars: KTlip incubated with Sirt6 at 37° C. in HEPES buffer (pH 8.0). As for the experimental part: as §1, §2

T6 sequence (Q8N6T7 whole entry, species assumed): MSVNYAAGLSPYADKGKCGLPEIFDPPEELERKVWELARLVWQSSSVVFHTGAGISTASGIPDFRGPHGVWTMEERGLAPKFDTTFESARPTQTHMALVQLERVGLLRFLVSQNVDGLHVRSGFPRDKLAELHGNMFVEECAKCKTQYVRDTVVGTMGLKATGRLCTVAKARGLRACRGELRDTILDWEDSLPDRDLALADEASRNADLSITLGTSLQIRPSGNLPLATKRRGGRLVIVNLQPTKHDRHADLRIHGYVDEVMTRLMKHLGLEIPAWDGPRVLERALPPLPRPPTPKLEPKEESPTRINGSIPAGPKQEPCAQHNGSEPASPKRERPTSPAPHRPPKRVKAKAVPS

For `CC(C)(C)OC(=O)N[C@@H](CCCCNC(=O)CCCCC1CCSS1)C(=O)NCCOCCOc1ccc([N+](=O)[O-])c2nonc12` (some centres unmarked) [KTlip], the fluorescence signal result on Sirt1 is “much lower fluorescence signal”. Also, the “delipoylated product (HPLC)” value at HDAC8 [1] is given as “no delipoylated product observed”. For the same molecule, the fluorescence increase result on Sirt5 is recorded as “did not show a noticeable fluorescence increase”; on Sirt3 it was “did not show a noticeable fluorescence increase”; on HDAC8 [2] it was “did not show a noticeable fluorescence increase”; on Sirt2 (KTlip incubated with Sirt2 at 37° C. in HEPES buffer (pH 8.0), NAD+, λex 480 nm) it was 60 fold; on Sirt6, “did not show a noticeable fluorescence increase”. In addition, the “first-order rate constant of the reaction” value at Sirt2 (delipoylation of KTlip by Sirt2, fit of fluorescence data to 1−exp(−kt)) worked out at 0.013 min⁻¹.
